Data: US6610699B2, “Use of L-carnitine and its alkanoyl derivatives in the preparation of medicaments with anticancer activity” (Sigma-Tau Industrie Farmaceutiche Riunite S.p.A., priority 1998, dated 2003)

How the values were obtained:
[1] = tested on: L-MM3 murine breast cancer cells; test: L-MM3 murine breast cancer in Balb/c mice, taxol and PLC, Experiment A (schedule A)
Method: Cell cultures of L-MM3 murine breast cancer cells were used, cultured at 37° C. in plastic flasks in a humidified atmosphere with 5% CO^2. The cells were grown in DMEM supplemented with 10% FCS and in the presence of 2 mM L-glutamine and 80 μg/ml of gentamicin. The subconfluent cells were collected during the exponential growth phase using trypsin-EDTA and re-suspended in DMEM. They were then injected subcutaneously in female Balb/c mice weighing 20 g at a density of 4×10^5.
The tumour was measured with a calliper three times a week as soon as it became palpable. The tumour mass is calculated on the basis of the measurements of the two dimensions (length and width), expressed in mm, according to the following formula: [formula]
If we consider conventionally a tumour density equal to 1, the result is that the tumour volume is equal to (mm^3=mg).
The agent is weighed, solubilised in the specific vehicle (12 mg/ml), and stored at +4° C., sheltered from the light. At the time of use, it is diluted 1:4 with saline solution in phosphate buffer (PBS, SIGMA) and injected.
Cremophor is diluted 1:1 with ethanol and stored sheltered from the light. On the day of treatment it is diluted 1:4 with PBS.

Female Wistar rats = test: Taxol-induced peripheral neuropathy: sensory nerve conduction velocity measured on the tail; settings: 5 weeks
Method: Female Wistar rats aged 3 months (Charles River) were used, housed at 22±2° C., with 50±15% relative humidity and a 12 hour light/darkness cycle.
The following method was used: the animals, anaesthetised with a gaseous mixture composed of 0.45 halothane, nitrogen protoxide and oxygen, were depilated in the stimulation zone and placed on an operating table. The recordings and stimulations of the sensory responses were done using an Ote Biomedica Phasis II electromyograph. […]
The sensory nerve conduction velocity, expressed in ms, was calculated as the ratio of the distance between the two stimulation points, expressed in mm, to the difference in latency of the waves produced by proximal (the nearest) and distal (the farthest from the dorsal spine) stimulation, expressed in ms.
The velocity was measured in all groups of animals both in basal conditions (prior to any administration) and after 5 weeks of treatment.
The results were expressed as means±standard deviation; significance was assessed using the “t”-test, for both independent and paired data, with a statistical significance cut-off of p<0.05.

Structure (SMILES) | Animals with tumours/total number of animals, Day 22 [1] | Animals with tumours/total number of animals, Day 25 [1] | Animals with tumours/total number of animals, Day 28 [1] | Animals with tumours/total number of animals, Day 36 [1] | Animals with tumours/total number of animals, Day 46 [1] | Animals with tumours/total number of animals, Day 19 ([1]; taxol 30 mg/kg i.p. days 15,17,19,21, PLC 100 mg/kg s.c. days 12-24) | Sensory nerve conduction velocity, % vs TAXOL (Female Wistar rats; acetyl L-carnitine with taxol 8 mg/kg) [%] | Sensory nerve conduction velocity, % vs TAXOL (Female Wistar rats; acetyl L-carnitine with taxol 16 mg/kg) [%]
CC(=O)O[C@H]1C(=O)[C@@]2(C)[C@H]([C@H](OC(=O)c3ccccc3)[C@]3(O)C[C@H](OC(=O)[C@H](O)[C@@H](NC(=O)c4ccccc4)c4ccccc4)C(C)=C1C3(C)C)[C@]1(OC(C)=O)CO[C@@H]1C[C@@H]2O [Taxol, paclitaxel, reference compound] | 6/13 | 7/13 | 9/13 | 11/13 | 11/13 | 6/13 | – | –
CC(=O)O[C@H](CC(=O)[O-])C[N+](C)(C)C [ALC, acetyl L-carnitine] | – | – | – | – | – | – | 5 | 9
